Results reported in patent publication US11661431B2, “Thienopyrrole compounds” (Gilead Sciences, Inc., priority 2021, dated 2023).

Experiments:
TLR7 = TLR7 (Homo sapiens (Human), UniProt Q9NYK1); test: TLR7 human peripheral blood mononuclear cell (PBMC) cell-based assay (GS-986 as agonist; IL-6 and IFNα readout); settings: human PBMCs, TLR7 agonist GS-986 at 400 nM, 6 hours, antagonist potency; read-out: TLR-7 EC50
In short: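 IL-6 and IFNα released into supernatant were quantified by electrochemiluminescence immunoassay. Before that, human PBMCs at 100,000 per well received a 10-point antagonist titration for 1 h, then TLR7 agonist for 6 more hours, all at 37 °C, 5% CO2.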

TLR8 = TLR8 (Homo sapiens (Human), UniProt Q9NR97); test: TLR8 human peripheral blood mononuclear cell (PBMC) cell-based assay (Compound A as agonist; TNFα and IL12p40 readout); settings: human PBMCs, TLR8 agonist Compound A at 800 nM, 6 hours, antagonist potency; read-out: TLR-8 EC50
Sequence of TLR8 (Q9NR97 27-1041): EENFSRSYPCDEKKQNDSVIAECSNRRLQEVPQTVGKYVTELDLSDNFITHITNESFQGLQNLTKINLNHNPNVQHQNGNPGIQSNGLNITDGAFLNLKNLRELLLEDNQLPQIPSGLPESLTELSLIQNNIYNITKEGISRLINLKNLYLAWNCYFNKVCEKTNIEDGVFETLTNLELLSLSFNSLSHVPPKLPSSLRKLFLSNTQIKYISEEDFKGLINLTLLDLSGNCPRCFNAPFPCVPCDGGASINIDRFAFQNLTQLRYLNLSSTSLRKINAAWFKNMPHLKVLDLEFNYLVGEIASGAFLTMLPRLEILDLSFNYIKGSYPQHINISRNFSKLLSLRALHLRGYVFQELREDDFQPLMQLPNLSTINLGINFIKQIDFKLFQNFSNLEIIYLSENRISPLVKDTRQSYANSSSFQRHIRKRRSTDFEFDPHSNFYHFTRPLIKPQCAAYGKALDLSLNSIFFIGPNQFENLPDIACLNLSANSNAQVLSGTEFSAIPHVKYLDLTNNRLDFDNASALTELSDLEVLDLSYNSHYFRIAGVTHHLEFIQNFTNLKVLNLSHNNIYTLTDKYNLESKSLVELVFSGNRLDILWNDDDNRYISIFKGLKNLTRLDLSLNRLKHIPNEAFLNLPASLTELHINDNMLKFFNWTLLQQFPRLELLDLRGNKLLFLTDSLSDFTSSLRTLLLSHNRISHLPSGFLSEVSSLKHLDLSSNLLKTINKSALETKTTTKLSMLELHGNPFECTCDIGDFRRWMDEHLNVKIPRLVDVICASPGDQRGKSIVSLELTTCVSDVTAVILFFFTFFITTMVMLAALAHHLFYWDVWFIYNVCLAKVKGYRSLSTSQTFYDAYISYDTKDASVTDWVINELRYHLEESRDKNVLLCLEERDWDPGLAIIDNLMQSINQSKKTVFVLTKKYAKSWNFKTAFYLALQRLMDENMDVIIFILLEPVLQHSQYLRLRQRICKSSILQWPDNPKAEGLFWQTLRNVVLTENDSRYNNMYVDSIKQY

Sequence of TLR7 (Q9NYK1 27-1049): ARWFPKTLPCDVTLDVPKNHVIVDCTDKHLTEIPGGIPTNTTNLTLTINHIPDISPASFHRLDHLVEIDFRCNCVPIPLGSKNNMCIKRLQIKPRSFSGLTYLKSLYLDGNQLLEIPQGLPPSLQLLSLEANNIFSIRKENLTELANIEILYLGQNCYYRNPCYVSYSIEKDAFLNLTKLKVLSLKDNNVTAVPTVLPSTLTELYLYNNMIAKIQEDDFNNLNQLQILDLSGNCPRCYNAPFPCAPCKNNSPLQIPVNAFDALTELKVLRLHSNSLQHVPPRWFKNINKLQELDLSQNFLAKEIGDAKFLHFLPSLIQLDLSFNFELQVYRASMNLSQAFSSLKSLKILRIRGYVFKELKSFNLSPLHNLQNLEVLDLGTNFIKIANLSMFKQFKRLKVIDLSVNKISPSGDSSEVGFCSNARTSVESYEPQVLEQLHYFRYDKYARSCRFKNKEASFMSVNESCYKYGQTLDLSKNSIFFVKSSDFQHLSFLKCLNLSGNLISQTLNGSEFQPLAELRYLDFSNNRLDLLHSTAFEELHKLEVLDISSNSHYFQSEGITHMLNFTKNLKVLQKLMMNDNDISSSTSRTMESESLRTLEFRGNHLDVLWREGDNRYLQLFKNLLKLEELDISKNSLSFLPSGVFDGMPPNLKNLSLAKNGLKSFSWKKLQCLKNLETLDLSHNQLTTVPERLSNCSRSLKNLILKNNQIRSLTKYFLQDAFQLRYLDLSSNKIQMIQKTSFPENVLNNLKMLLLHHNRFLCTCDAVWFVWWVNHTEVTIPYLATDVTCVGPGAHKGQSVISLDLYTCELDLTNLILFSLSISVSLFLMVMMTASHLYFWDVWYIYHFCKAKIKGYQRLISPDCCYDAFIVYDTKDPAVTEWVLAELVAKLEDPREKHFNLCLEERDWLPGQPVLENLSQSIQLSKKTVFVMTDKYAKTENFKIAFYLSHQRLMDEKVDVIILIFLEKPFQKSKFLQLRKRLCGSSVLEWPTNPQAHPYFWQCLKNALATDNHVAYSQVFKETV

| Compound | EC50 (TLR7) [nM] | EC50 (TLR8) [nM] |
| --- | --- | --- |
| Cc1c(-c2[nH]c3sc(C45CCNCC4C5)c(C)c3c2C(C)C)cn2ncnc2c1C (stereo not shown) [Example 77, 2-(3-azabicyclo[4.1.0]heptan-6-yl)-5-(7,8-dimethyl-[1,2,4]triazolo[1,5-a]pyridin-6-yl)-4-isopropyl-3-methyl-6H-thieno[2,3-b]pyrrole] | 0.09 | 2.89 |
| Cc1c(-c2[nH]c3sc(C4COC5(CCN(CC(N)=O)CC5)C4)c(C)c3c2C(C)C)cn2ncnc2c1C (stereo not shown) [Example 80] | 2.15 | 15.2 |
| Cc1c(-c2[nH]c3sc([C@@H]4C[C@@H]5C[C@H]4CN5C(C)C(N)=O)c(C)c3c2C(C)C)cn2ncnc2c1C (stereo partly shown) [Example 81] | 0.19 | 0.45 |
| Cc1c(-c2[nH]c3sc(C4CCN(C(=O)[C@@H]5COCCN5)CC4)c(C)c3c2C(C)C)cn2ncnc2c1C [Example 92] | 1.94 | 2.67 |
| Cc1c(-c2[nH]c3sc(C4CCN(C(=O)[C@H]5C[C@@]6(CNCCO6)C5)CC4)c(C)c3c2C(C)C)cn2ncnc2c1C [Example 94, [4-[5-(7,8-dimethyl-[1,2,4]triazolo[1,5-a]pyridin-6-yl)-4-isopropyl-3-methyl-6H-thieno[2,3-b]pyrrol-2-yl]-1-piperidyl]-(5-oxa-8-azaspiro[3.5]nonan-2-yl)methanone] | 0.05 | 2.3 |
| Cc1c(-c2[nH]c3sc(C4CCN(C(=O)C5CN6CC7CC6(CO5)C7)CC4)c(C)c3c2C(C)C)cn2ncnc2c1C (stereo not shown) [Example 105] | < 0.05 | 4.17 |
| Cc1c(-c2[nH]c3sc(C4CCN(C(=O)C5(N)COC5)CC4)c(C)c3c2C(C)C)cn2ncnc2c1C [Example 106] | 0.34 | 49.3 |
| Cc1c(-c2[nH]c3sc(C4CCN(C(=O)C56CCC(CN5)OC6)CC4)c(C)c3c2C(C)C)cn2ncnc2c1C (stereo not shown) [Example 108] | 0.2 | 4.77 |
| Cc1c(-c2[nH]c3sc(C4CCN(C(=O)[C@@H]5CNCCO5)CC4)c(C)c3c2C(C)C)cn2ncnc2c1C [Example 109] | < 0.05 | 3.45 |
| Cc1c(-c2[nH]c3sc(C4C[C@H]5C[C@@H]4N(CC(N)=O)C5)c(C)c3c2C(C)C)cn2ncnc2c1C (stereo partly shown) [Example 114] | 0.44 | 2.71 |
| Cc1c(C2CCN(C(=O)[C@@H]3C[C@@H](F)CN3)CC2)sc2[nH]c(-c3cc(C)c4ncnn4c3)c(C(C)C)c12 [Example 117] | 0.52 | 16.6 |
| Cc1nnc(CN2C[C@@H]3C[C@H]2C[C@H]3c2sc3[nH]c(-c4cn5ncnc5c(C)c4C)c(C(C)C)c3c2C)o1 [Example 119] | 0.34 | 4.55 |
| Cc1noc(C)c1CN1C[C@@H]2C[C@H]1C[C@H]2c1sc2[nH]c(-c3cn4ncnc4c(C)c3C)c(C(C)C)c2c1C [Example 120] | 0.09 | 1.1 |
| Cc1c(C2CCC3(C2)CN(CC(N)=O)C3)sc2[nH]c(-c3cc(C)c4ncnn4c3)c(C(C)C)c12 (stereo not shown) [Example 122] | 0.38 | 1.63 |
| Cc1c(C2CC3(CCNCC3)C2)sc2[nH]c(-c3cc(C)c4ncnn4c3)c(C(C)C)c12 [Example 123] | 0.16 | 2.15 |
| Cc1cc(-c2[nH]c3sc([C@H]4C[C@@]5(CCNC5)C4)c(C)c3c2C(C)C)cn2ncnc12 [Example 125] | 0.33 | 1.5 |
| Cc1c(C2CCC3(CCNCC3)C2)sc2[nH]c(-c3cc(C)c4ncnn4c3)c(C(C)C)c12 (stereo not shown) [Example 129] | 0.27 | 10.7 |
| Cc1nc2c(C)cc(-c3[nH]c4sc(C5CCNCC5)c(C)c4c3C(C)C)cn2n1 [Example 131] | 0.12 | 6.92 |
| Cc1cc(-c2[nH]c3sc([C@H]4C[C@]5(CCN(CC(N)=O)C5)C4)c(C)c3c2C(C)C)cn2ncnc12 [Example 132] | 0.1 | 0.54 |
| Cc1c(C2CCC3(CCN(CC(N)=O)CC3)C2)sc2[nH]c(-c3cc(C)c4ncnn4c3)c(C(C)C)c12 (stereo not shown) [Example 133] | 0.6 | 5.06 |
| Cc1nc2c(C)cc(-c3[nH]c4sc(C5CCN(CC(N)=O)CC5)c(C)c4c3C(C)C)cn2n1 [Example 134] | 0.74 | 12.6 |

Next, values leading:

| EC50 (TLR7) [nM] | EC50 (TLR8) [nM] | Compound |
| --- | --- | --- |
| 0.42 | 5.44 | Cc1c(-c2[nH]c3sc(C4COC5(CCNCC5)C4)c(C)c3c2C(C)C)cn2ncnc2c1C (stereo not shown) [Example 78, 3-(5-(7,8-dimethyl-[1,2,4]triazolo[1,5-a]pyridin-6-yl)-4-isopropyl-3-methyl-6H-thieno[2,3-b]pyrrol-2-yl)-1-oxa-8-azaspiro[4.5]decane] |
| 0.45 | 0.61 | Cc1c(-c2[nH]c3sc([C@@H]4C[C@@H]5C[C@H]4CN5CCS(C)(=O)=O)c(C)c3c2C(C)C)cn2ncnc2c1C [Example 83] |
| 1.36 | 18.4 | Cc1c(-c2[nH]c3sc(C45CCN(CC(N)=O)CC4C5)c(C)c3c2C(C)C)cn2ncnc2c1C (stereo not shown) [Example 93] |
| 0.43 | 5.96 | Cc1c(-c2[nH]c3sc(C4CCN(C(=O)[C@@H]5CCCN5)CC4)c(C)c3c2C(C)C)cn2ncnc2c1C [Example 99] |
| 0.1 | 2.49 | Cc1c(-c2[nH]c3sc(C4CCN(C(=O)[C@H]5CN6CCCC6CO5)CC4)c(C)c3c2C(C)C)cn2ncnc2c1C (stereo partly shown) [Example 104] |
| < 0.05 | 6.79 | Cc1c(-c2[nH]c3sc(C4CCN(C(=O)C56COC(CN5)C6)CC4)c(C)c3c2C(C)C)cn2ncnc2c1C (stereo not shown) [Example 107] |
| 0.09 | 6.21 | Cc1c(-c2[nH]c3sc(C4CCN(C(=O)[C@H]5CNCCO5)CC4)c(C)c3c2C(C)C)cn2ncnc2c1C [Example 110] |
| 0.45 | 6.58 | Cc1c(-c2[nH]c3sc(-c4ccc(C5CCNCC5)cc4)c(C)c3c2C(C)C)cn2ncnc2c1C [Example 111] |
| 0.07 | 0.5 | Cc1c(-c2[nH]c3sc(C4C[C@@H]5CN[C@H]4C5)c(C)c3c2C(C)C)cn2ncnc2c1C (stereo partly shown) [Example 112] |
| 0.54 | 9.8 | Cc1c(-c2[nH]c3sc(-c4ccc(C5CCN(CC(N)=O)CC5)cc4)c(C)c3c2C(C)C)cn2ncnc2c1C [Example 113] |
| 0.24 | 9.38 | Cc1c(-c2[nH]c3sc(-c4ccc(C5CNCCO5)cc4)c(C)c3c2C(C)C)cn2ncnc2c1C (stereo not shown) [Example 115] |
| 0.39 | 27.4 | Cc1c(C2CCN(C(=O)C3(N4CCOCC4)CC3)CC2)sc2[nH]c(-c3cc(C)c4ncnn4c3)c(C(C)C)c12 [Example 116] |
| 0.24 | 15.2 | Cc1c(C2CCN(C(=O)[C@@H]3C[C@H](F)CN3)CC2)sc2[nH]c(-c3cc(C)c4ncnn4c3)c(C(C)C)c12 [Example 118] |
| < 0.05 | 0.13 | Cc1nc2c(C)cc(-c3[nH]c4sc([C@@H]5C[C@@H]6C[C@H]5CN6CC(N)=O)c(C)c4c3C(C)C)cn2n1 [Example 121] |
| 0.3 | 3.22 | Cc1c(C2CC3(CCN(CC(N)=O)CC3)C2)sc2[nH]c(-c3cc(C)c4ncnn4c3)c(C(C)C)c12 [Example 124] |
| 0.24 | 1.74 | Cc1cc(-c2[nH]c3sc([C@H]4C[C@@]5(CCN(CC(N)=O)C5)C4)c(C)c3c2C(C)C)cn2ncnc12 [Example 126] |
| 0.21 | 1.52 | Cc1c(C2CCNC2)sc2[nH]c(-c3cc(C)c4ncnn4c3)c(C(C)C)c12 (stereo not shown) [Example 127] |
